Earlier results on twelve compounds are cited in patent US20110243859A1, “ENCAPSULATING SYSTEM FOR CEST IMAGING WITH CHELATE Q GREATER THAN OR EQUAL TO 2” (GUERBET, priority 2008, published 2011).

For the first series the following is noted: monomeric chelate.
Take `NC1C(O)C(N)C(O)C(N)C1O` (stereo not drawn) [Taci]: the Value q is on record as 2.

For the compound `CC1(N(CC(=O)O)CC(=O)O)CN(CC(=O)O)CCN(CC(=O)O)C1` [AAZTA], the Value q is reported as 2. As to `CC(C(=O)O)N1CCNCCN(C(C)C(=O)O)CCN(C(C)C(=O)O)CC1` (stereo not drawn) [DO3MA], the Value q is 2. In the case of texaphyrin [Tx], the Value q was 3.5. On to `O=C(O)CN1CCN(CC(=O)O)CCN(CC(=O)O)CCN(CC(=O)O)CC1` [DOTA], for which the Value q was 1.

Turning to `CC(O)CN1CCN(CC(=O)O)CCN(CC(=O)O)CCN(CC(=O)O)CC1` (stereo not drawn) [HP-DO3A], the Value q was 1. For `O=C(O)CN1CCNCCN(CC(=O)O)CCNCC1` [DO2A], the Value q is given as 3. Take `O=C(O)CN1CCNCCN(CC(=O)O)CCN(CC(=O)O)CC1` [DO3A]: the Value q is 2. With `CC(CN(CC(=O)O)CC(=O)O)N(CC(=O)O)CC(=O)O` (stereo not drawn) [MeDTA], the Value q is 2. `O=C(O)CN1CCN(CC(=O)O)Cc2cccc(n2)CN(CC(=O)O)CC1` [PCTA]: the Value q is on record as 2. For the compound `CC(C(=O)O)N1CCN(C(C)C(=O)O)CCN(C(C)C(=O)O)CC1` (stereo not drawn) [NOTMA], the Value q is recorded as 2.

The conditions of a further series: spherical liposome, maximum accessible concentration inside.
For `CC(O)CN1CCN(CC(=O)[O-])CCN(CC(=O)[O-])CCN(CC(=O)[O-])CC1.[Tm+3]` (stereo not drawn) [HP-DO3A-Tm], the Delta shift value is listed as 3.5 ppm.
